Measured values reported in US20060160753A1, “Micronutrient formulation for cognitive & mood benefits” (Conopco Inc, d/b/a UNILEVER, priority 2004, published 2006).

Assay: Urinary PABA recovery (compliance marker), Example 1 trial
Assay type: in vivo, human
Conditions: 24 h urine, all time points; 120 mg PABA per bar, 2 bars daily
Experimental: Subjects were then randomized in a parallel design into two groups to receive either the nutrient test bar or placebo food. Both placebo and test bars contained 120 mg PABA (para-aminobenzoic acid), urinary excretion of which was used as a measure of compliance. Subjects were asked to continue adherence to dietary restrictions described above and to consume the provided test or control product twice daily (once with breakfast and once with evening meal) over the 10 week period.
Fasting venous blood samples were collected at the start of the 10 week intervention phase and on the last week of the intervention period. Serum and EDTA plasma samples were then collected following centrifugation at 3000 rpm for 10 mins at 4° C. and aliquots stored at −80° C. prior to analysis. Twenty-four hour urine samples were also collected at a total of 6 different time points through the study to monitor PABA excretion.
33 subjects completed the study. Compliance was judged to be good as assessed by both subjective and objective measures. Briefly, subjects completed a food diary, in which labels attached to study bars were peeled off and stuck once consumed. The maximum number of bars reported to be missed was 14 during the 12 week (and therefore 168 bar) trial. This was corroborated by the urinary PABA results, which were used as an objective measure of compliance.

- PABA recovery: > 85%
Structure (SMILES): Nc1ccc(C(=O)O)cc1 [PABA, para-aminobenzoic acid]
